Source: patent US20170320870A1 (Medical Research Council Technology, priority 2009, published 2017)

Key:
Assay in all cases: Kinase selectivity: percentage inhibition of each specific kinase at 1 μM inhibitor concentration
Type in all cases: biochemical
[1] = target: each specific kinase (kinase selectivity panel, Table 2) (Homo sapiens, UniProt Q15831); conditions: LKB1
Description: (§1) Values are expressed as percentage inhibition of the each specific kinase at 1 μM inhibitor concentration.

[2] = target: each specific kinase (kinase selectivity panel, Table 2) (Homo sapiens, UniProt P17252); conditions: PKCa
Description: as §1

[3] = target: each specific kinase (kinase selectivity panel, Table 2) (Homo sapiens, UniProt Q9BUB5); conditions: MNK1
Description: as §1

[4] = target: each specific kinase (kinase selectivity panel, Table 2) (Homo sapiens, UniProt O00141); conditions: SGK1
Description: as §1

[5] = target: each specific kinase (kinase selectivity panel, Table 2) (Homo sapiens, UniProt Q12851); conditions: GCK
Description: as §1

[6] = target: each specific kinase (kinase selectivity panel, Table 2) (Homo sapiens, UniProt P14616); conditions: IRR
Description: as §1

[7] = target: each specific kinase (kinase selectivity panel, Table 2) (Homo sapiens, UniProt P28482); conditions: ERK2
Description: as §1

[8] = target: each specific kinase (kinase selectivity panel, Table 2) (Homo sapiens, UniProt Q14164); conditions: IKKe
Description: as §1

[9] = target: each specific kinase (kinase selectivity panel, Table 2) (Homo sapiens, UniProt Q16539); conditions: p38a MAPK
Description: as §1

[10] = target: each specific kinase (kinase selectivity panel, Table 2) (Homo sapiens, UniProt Q96GD4); conditions: Aurora B
Description: as §1

[11] = target: each specific kinase (kinase selectivity panel, Table 2) (Homo sapiens, UniProt Q14012); conditions: CAMK1
Description: as §1

[12] = target: each specific kinase (kinase selectivity panel, Table 2) (Homo sapiens, UniProt P51955); conditions: NEK2a
Description: as §1

[13] = target: each specific kinase (kinase selectivity panel, Table 2) (Homo sapiens, UniProt P45983); conditions: JNK1
Description: as §1

[14] = target: each specific kinase (kinase selectivity panel, Table 2) (Homo sapiens, UniProt P48730); conditions: CK1
Description: as §1

[15] = tested on: each specific kinase (kinase selectivity panel, Table 2)
Description: as §1

[16] = target: each specific kinase (kinase selectivity panel, Table 2) (Homo sapiens, UniProt O14965); conditions: Aurora A
Description: as §1

[17] = target: each specific kinase (kinase selectivity panel, Table 2) (Homo sapiens, UniProt Q15139); conditions: PKD1
Description: as §1

[18] = target: each specific kinase (kinase selectivity panel, Table 2) (Homo sapiens, UniProt O43318); conditions: TAK1
Description: as §1

[19] = target: each specific kinase (kinase selectivity panel, Table 2) (Homo sapiens, UniProt Q9P289); conditions: MST4
Description: as §1

[20] = target: each specific kinase (kinase selectivity panel, Table 2) (Homo sapiens, UniProt P29317); conditions: EPH-A2
Description: as §1

[21] = target: each specific kinase (kinase selectivity panel, Table 2) (Homo sapiens, UniProt O60285); conditions: NUAK1
Description: as §1

[22] = target: each specific kinase (kinase selectivity panel, Table 2) (Homo sapiens, UniProt P41240); conditions: CSK
Description: as §1

[23] = target: each specific kinase (kinase selectivity panel, Table 2) (Homo sapiens, UniProt Q9NWZ3); conditions: IRAK4
Description: as §1

[24] = target: each specific kinase (kinase selectivity panel, Table 2) (Homo sapiens, UniProt Q13188); conditions: MST2
Description: as §1

[25] = target: each specific kinase (kinase selectivity panel, Table 2) (Homo sapiens, UniProt P53350); conditions: PLK1
Description: as §1

[26] = target: each specific kinase (kinase selectivity panel, Table 2) (Homo sapiens, UniProt P68400); conditions: CK2
Description: as §1

[27] = target: each specific kinase (kinase selectivity panel, Table 2) (Homo sapiens, UniProt Q13627); conditions: DYRK1A
Description: as §1

[28] = target: each specific kinase (kinase selectivity panel, Table 2) (Homo sapiens, UniProt Q14680); conditions: MELK
Description: as §1

[29] = target: each specific kinase (kinase selectivity panel, Table 2) (Homo sapiens, UniProt P45984); conditions: JNK2
Description: as §1

[30] = target: each specific kinase (kinase selectivity panel, Table 2) (Homo sapiens, UniProt P08069); conditions: IGF-1R
Description: as §1

[31] = target: each specific kinase (kinase selectivity panel, Table 2) (Homo sapiens, UniProt P12931); conditions: Src
Description: as §1

[32] = target: each specific kinase (kinase selectivity panel, Table 2) (Homo sapiens, UniProt P27448); conditions: MARK3
Description: as §1

[33] = target: each specific kinase (kinase selectivity panel, Table 2) (Homo sapiens, UniProt P54753); conditions: EPH-B3
Description: as §1

[34] = target: each specific kinase (kinase selectivity panel, Table 2) (Homo sapiens, UniProt P11362); conditions: FGF-R1
Description: as §1

Chain of each specific kinase (kinase selectivity panel, Table 2) (Homo sapiens, UniProt O43318) (O43318 whole entry): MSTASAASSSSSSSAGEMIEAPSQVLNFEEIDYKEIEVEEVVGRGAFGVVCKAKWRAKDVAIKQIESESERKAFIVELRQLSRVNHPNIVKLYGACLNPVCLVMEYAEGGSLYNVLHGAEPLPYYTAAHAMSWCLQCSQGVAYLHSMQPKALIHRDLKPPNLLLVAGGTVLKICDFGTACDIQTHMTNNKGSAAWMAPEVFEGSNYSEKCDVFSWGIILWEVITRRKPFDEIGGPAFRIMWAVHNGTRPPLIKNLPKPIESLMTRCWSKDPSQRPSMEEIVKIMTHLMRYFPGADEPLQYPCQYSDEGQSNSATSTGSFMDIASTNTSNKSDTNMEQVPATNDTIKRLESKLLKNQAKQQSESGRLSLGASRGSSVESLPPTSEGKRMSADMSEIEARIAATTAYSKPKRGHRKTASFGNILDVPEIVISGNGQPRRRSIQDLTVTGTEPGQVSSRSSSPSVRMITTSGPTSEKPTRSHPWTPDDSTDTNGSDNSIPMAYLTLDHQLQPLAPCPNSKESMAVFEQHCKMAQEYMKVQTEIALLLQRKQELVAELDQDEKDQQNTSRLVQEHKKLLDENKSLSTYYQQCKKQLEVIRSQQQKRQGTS
Chain of each specific kinase (kinase selectivity panel, Table 2) (Homo sapiens, UniProt Q9NWZ3) (Q9NWZ3 whole entry): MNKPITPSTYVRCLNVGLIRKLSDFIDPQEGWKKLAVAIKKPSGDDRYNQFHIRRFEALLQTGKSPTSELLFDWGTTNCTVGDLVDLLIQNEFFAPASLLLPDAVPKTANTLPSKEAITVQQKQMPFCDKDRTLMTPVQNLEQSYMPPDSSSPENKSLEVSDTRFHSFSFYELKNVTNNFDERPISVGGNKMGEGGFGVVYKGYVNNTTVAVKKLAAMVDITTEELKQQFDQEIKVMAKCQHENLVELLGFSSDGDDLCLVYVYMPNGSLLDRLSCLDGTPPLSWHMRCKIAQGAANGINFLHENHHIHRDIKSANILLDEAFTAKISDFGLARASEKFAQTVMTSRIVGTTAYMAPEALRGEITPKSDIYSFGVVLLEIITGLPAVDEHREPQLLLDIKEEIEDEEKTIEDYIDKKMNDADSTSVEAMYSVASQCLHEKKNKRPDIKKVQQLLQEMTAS
Chain of each specific kinase (kinase selectivity panel, Table 2) (Homo sapiens, UniProt O00141) (O00141 whole entry): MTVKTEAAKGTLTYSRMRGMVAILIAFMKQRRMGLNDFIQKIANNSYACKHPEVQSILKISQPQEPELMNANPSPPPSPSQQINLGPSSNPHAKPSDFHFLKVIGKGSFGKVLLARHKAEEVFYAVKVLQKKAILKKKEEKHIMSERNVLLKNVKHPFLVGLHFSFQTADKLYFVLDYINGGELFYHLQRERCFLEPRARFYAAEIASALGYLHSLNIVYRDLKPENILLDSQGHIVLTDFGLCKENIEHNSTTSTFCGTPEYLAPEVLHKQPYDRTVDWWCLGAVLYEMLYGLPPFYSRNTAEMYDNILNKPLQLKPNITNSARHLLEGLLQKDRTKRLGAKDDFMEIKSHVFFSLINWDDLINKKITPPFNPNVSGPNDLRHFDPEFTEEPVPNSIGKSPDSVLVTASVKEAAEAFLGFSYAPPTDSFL
Chain of each specific kinase (kinase selectivity panel, Table 2) (Homo sapiens, UniProt Q14680) (Q14680 whole entry): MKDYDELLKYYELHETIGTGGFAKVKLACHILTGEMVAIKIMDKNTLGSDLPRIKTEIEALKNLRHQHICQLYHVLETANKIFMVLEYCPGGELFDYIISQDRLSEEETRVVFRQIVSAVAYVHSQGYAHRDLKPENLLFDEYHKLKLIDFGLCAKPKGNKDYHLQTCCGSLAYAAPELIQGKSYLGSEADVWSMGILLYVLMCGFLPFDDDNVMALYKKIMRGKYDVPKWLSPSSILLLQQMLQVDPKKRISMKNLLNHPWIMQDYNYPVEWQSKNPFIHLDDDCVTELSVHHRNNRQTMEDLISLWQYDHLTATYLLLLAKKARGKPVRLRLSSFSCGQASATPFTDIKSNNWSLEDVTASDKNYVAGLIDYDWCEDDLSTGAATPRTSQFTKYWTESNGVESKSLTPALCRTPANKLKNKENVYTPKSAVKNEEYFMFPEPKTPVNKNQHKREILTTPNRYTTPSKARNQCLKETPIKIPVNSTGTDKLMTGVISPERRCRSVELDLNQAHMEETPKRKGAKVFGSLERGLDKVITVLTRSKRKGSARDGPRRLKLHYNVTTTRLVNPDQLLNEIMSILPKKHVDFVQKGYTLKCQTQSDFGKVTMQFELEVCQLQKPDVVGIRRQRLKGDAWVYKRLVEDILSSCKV
Chain of each specific kinase (kinase selectivity panel, Table 2) (Homo sapiens, UniProt Q96GD4) (Q96GD4 whole entry): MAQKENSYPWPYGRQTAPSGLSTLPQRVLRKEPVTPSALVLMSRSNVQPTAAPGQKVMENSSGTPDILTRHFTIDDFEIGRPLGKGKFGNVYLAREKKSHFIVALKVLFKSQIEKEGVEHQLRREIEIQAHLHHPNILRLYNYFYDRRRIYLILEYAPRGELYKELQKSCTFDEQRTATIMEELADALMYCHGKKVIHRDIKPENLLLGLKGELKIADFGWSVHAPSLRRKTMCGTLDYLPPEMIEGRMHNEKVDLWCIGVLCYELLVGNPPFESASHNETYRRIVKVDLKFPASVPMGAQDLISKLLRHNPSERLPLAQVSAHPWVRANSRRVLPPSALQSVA
Chain of each specific kinase (kinase selectivity panel, Table 2) (Homo sapiens, UniProt Q16539) (Q16539 whole entry): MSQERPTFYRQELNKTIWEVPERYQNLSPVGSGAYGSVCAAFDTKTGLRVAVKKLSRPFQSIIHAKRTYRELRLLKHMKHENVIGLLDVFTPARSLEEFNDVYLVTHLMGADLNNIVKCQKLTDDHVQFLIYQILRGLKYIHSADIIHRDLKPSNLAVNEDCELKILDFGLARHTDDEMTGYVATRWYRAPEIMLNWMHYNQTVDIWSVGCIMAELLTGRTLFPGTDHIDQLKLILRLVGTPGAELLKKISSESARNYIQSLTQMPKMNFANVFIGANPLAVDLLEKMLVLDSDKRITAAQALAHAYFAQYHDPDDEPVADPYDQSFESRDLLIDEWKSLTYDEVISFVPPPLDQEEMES
Chain of each specific kinase (kinase selectivity panel, Table 2) (Homo sapiens, UniProt Q12851) (Q12851 whole entry): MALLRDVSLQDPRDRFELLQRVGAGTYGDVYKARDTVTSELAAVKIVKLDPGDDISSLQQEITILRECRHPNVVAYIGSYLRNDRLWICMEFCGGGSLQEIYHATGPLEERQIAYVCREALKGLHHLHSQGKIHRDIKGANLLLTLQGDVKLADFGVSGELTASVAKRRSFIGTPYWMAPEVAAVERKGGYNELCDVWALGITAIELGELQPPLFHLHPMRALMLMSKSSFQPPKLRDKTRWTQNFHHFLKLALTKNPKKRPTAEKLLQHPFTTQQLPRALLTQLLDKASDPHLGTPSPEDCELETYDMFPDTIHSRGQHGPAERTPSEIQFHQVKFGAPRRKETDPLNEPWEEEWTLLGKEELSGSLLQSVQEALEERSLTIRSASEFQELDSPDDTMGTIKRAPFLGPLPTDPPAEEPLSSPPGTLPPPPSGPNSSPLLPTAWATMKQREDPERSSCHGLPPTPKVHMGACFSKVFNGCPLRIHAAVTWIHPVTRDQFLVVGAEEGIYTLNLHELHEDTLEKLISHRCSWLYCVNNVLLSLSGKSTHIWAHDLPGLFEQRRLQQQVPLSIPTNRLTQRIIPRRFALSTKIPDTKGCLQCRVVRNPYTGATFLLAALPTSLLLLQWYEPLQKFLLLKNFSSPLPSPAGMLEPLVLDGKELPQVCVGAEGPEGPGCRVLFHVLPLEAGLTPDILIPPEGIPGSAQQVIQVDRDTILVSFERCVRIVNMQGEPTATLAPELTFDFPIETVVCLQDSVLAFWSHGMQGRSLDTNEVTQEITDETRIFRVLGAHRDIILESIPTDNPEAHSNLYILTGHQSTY
Chain of each specific kinase (kinase selectivity panel, Table 2) (Homo sapiens, UniProt P68400) (P68400 whole entry): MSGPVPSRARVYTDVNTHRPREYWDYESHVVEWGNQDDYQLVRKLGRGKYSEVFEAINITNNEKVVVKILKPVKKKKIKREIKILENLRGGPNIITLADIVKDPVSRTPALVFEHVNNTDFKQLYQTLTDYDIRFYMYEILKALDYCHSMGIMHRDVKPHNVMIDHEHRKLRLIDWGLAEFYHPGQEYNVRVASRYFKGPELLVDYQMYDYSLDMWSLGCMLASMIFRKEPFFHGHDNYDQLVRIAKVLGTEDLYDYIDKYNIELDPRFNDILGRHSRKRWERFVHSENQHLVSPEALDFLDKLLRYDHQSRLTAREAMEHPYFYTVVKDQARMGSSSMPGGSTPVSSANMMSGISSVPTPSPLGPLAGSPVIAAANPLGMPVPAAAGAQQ
Chain of each specific kinase (kinase selectivity panel, Table 2) (Homo sapiens, UniProt P51955) (P51955 whole entry): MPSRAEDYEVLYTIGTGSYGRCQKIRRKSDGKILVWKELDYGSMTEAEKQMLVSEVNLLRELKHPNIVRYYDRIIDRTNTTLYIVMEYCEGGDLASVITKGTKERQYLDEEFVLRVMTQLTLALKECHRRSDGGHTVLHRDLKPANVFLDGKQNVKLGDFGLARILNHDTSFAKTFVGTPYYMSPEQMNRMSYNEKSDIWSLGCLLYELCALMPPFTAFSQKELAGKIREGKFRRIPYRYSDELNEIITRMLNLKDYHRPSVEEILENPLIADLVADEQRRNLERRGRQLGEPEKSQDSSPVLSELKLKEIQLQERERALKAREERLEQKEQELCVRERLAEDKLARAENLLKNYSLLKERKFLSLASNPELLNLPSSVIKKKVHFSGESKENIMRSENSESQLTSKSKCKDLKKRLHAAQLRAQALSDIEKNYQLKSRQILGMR
Chain of each specific kinase (kinase selectivity panel, Table 2) (Homo sapiens, UniProt P45983) (P45983 whole entry): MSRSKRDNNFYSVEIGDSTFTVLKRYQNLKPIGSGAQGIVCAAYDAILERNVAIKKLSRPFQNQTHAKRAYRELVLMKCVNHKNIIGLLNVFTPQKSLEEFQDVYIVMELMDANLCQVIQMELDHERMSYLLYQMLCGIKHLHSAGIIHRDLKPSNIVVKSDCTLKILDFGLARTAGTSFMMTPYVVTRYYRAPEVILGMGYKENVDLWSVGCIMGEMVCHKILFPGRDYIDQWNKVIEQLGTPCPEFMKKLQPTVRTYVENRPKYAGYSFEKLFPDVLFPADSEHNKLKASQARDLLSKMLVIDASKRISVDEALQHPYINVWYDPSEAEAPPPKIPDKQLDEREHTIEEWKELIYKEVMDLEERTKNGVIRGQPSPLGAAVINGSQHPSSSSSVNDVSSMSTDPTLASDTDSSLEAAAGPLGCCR

SMILES	percentage inhibition of LKB1 [1] [percentage]	percentage inhibition of PKCa [2] [percentage]	percentage inhibition of MNK1 [3] [percentage]	percentage inhibition of SGK1 [4] [percentage]	percentage inhibition of GCK [5] [percentage]	percentage inhibition of IRR [6] [percentage]	percentage inhibition of ERK2 [7] [percentage]	percentage inhibition of IKKe [8] [percentage]	percentage inhibition of p38a MAPK [9] [percentage]	percentage inhibition of Aurora B [10] [percentage]	percentage inhibition of CAMK1 [11] [percentage]	percentage inhibition of NEK2a [12] [percentage]	percentage inhibition of JNK1 [13] [percentage]	percentage inhibition of CK1 [14] [percentage]	percentage inhibition of AMPK [15] [percentage]	percentage inhibition of PHK [15] [percentage]	percentage inhibition of Aurora A [16] [percentage]	percentage inhibition of PKD1 [17] [percentage]	percentage inhibition of TAK1 [18] [percentage]	percentage inhibition of MST4 [19] [percentage]	other results
O=C(CCc1n[nH]c2ccnc(NC3CCCCC3)c12)N1CCC[C@H](c2ccccc2)C1 [Example 172, 3-(4-Cyclohexylamino-1H-pyrazolo[4,3-c]pyridin-3-yl)-1-((R)-3-phenyl-piperidin-1-yl)-propan-1-one]	8	0	0	1	19	15	9	17	6	15	14	5	17	6	0	26	0	1	9	10	percentage inhibition of EPH-A2 [20]: 0 percentage; percentage inhibition of NUAK1 [21]: 14 percentage; percentage inhibition of CSK [22]: 11 percentage; percentage inhibition of IRAK4 [23]: 0 percentage; percentage inhibition of MST2 [24]: 10 percentage; percentage inhibition of PLK1 [25]: 3 percentage; percentage inhibition of CK2 [26]: 3 percentage; percentage inhibition of DYRK1A [27]: 27 percentage; percentage inhibition of MELK [28]: 5 percentage; percentage inhibition of JNK2 [29]: 22 percentage; percentage inhibition of IGF-1R [30]: 18 percentage; percentage inhibition of Src [31]: 6 percentage; percentage inhibition of MARK3 [32]: 18 percentage; percentage inhibition of EPH-B3 [33]: 3 percentage; percentage inhibition of FGF-R1 [34]: 0 percentage
CC[C@H](C)Oc1nccc2[nH]nc(C)c12 [Example 121, 4-((S)-sec-Butoxy)-3-methyl-1H-pyrazolo[4,3-c]pyridine]	42	2	1	23	68	22	0	19	0	0	5	0	7	31	29	7	46	29	72	23	percentage inhibition of EPH-A2 [20]: 8 percentage; percentage inhibition of NUAK1 [21]: 59 percentage; percentage inhibition of CSK [22]: 6 percentage; percentage inhibition of IRAK4 [23]: 12 percentage; percentage inhibition of MST2 [24]: 55 percentage; percentage inhibition of PLK1 [25]: 19 percentage; percentage inhibition of CK2 [26]: 0 percentage; percentage inhibition of DYRK1A [27]: 27 percentage; percentage inhibition of MELK [28]: 61 percentage; percentage inhibition of JNK2 [29]: 0 percentage; percentage inhibition of IGF-1R [30]: 46 percentage; percentage inhibition of Src [31]: 0 percentage; percentage inhibition of MARK3 [32]: 12 percentage; percentage inhibition of EPH-B3 [33]: 6 percentage; percentage inhibition of FGF-R1 [34]: 36 percentage
